Results taken from ChEMBL document CHEMBL3885881, “DrugMatrix”.

Organism: Rattus norvegicus
Assay: DrugMatrix - Regimen: Daily Repeat
Type: toxicity, organism-based, Sprague-Dawley
Set-up: regimen Daily Repeat, gender Male, age 6-8 weeks
Conditions: in vivo, po, route oral GAVAGE, […]; for ABSOLUTE BASOPHIL / ABSOLUTE EOSINOPHIL / ABSOLUTE LYMPHOCYTE / ABSOLUTE MONOCYTE / ABSOLUTE SEGMENTED NEUTROPHIL / BASOPHIL / EOSINOPHIL / ERYTHROCYTE COUNT / HEMATOCRIT / HEMOGLOBIN / LEUKOCYTE COUNT / LYMPHOCYTE / MEAN CORPUSCULAR HEMOGLOBIN / MEAN CORPUSCULAR HEMOGLOBIN CONCENTRATION / MEAN CORPUSCULAR VOLUME / MONOCYTE / NEUTROPHIL / NUCLEATED RED BLOOD CELLS / PLATELET COUNT: tissue Blood; for ALANINE AMINOTRANSFERASE / ALBUMIN / ALKALINE PHOSPHATASE / ASPARTATE AMINOTRANSFERASE / BLOOD UREA NITROGEN / CARBON DIOXIDE / CHLORIDE / CHOLESTEROL / CREATINE PHOSPHOKINASE / CREATININE / GLUCOSE / LACTATE DEHYDROGENASE / LIPASE / PHOSPHORUS / POTASSIUM / SODIUM / TOTAL BILIRUBIN / TOTAL PROTEIN / URIC ACID: tissue Plasma
[1] = 3 mg/kg, 120 h, dose level Low, time 5 day
[2] = 300 mg/kg, 72 h, dose level High, time 3 day
[3] = 300 mg/kg, 120 h, dose level High, time 5 day

## CC#C[C@]1(O)CC[C@H]2[C@@H]3CCC4=CC(=O)CCC4=C3[C@@H](c3ccc(N(C)C)cc3)C[C@@]21C [MIFEPRISTONE]
[1]
  ABSOLUTE BASOPHIL: 0 CELLS/uL
  ABSOLUTE EOSINOPHIL: 0 CELLS/uL
  ABSOLUTE LYMPHOCYTE: 7739.67 CELLS/uL
  ABSOLUTE MONOCYTE: 116.67 CELLS/uL
  ABSOLUTE SEGMENTED NEUTROPHIL: 1310.33 CELLS/uL
  BASOPHIL: 0%
  EOSINOPHIL: 0%
  ERYTHROCYTE COUNT: 4.91 x10E6/uL
  HEMATOCRIT: 31.8%
  HEMOGLOBIN: 12.53 G/DL
  LEUKOCYTE COUNT: 9.17 x10E3/uL
  LYMPHOCYTE: 84.33%
  MEAN CORPUSCULAR HEMOGLOBIN: 25.53 pg
  MEAN CORPUSCULAR HEMOGLOBIN CONCENTRATION: 39.43 G/DL
  MEAN CORPUSCULAR VOLUME: 64.83 fL
  MONOCYTE: 1.33%
  NEUTROPHIL: 14.33%
  NUCLEATED RED BLOOD CELLS: 0 /100WBC
  PLATELET COUNT: 1194.67 x10E3/uL
  ALANINE AMINOTRANSFERASE: 61.67 u/L
  ALBUMIN: 4.13 G/DL
  ALKALINE PHOSPHATASE: 340.33 u/L
  ASPARTATE AMINOTRANSFERASE: 84 u/L
  BLOOD UREA NITROGEN: 13.33 mg/dL
  CARBON DIOXIDE: 30.33 mmol/L
  CHLORIDE: 97.67 MEQ/L
  CHOLESTEROL: 64.67 mg/dL
  CREATINE PHOSPHOKINASE: 193.33 u/L
  CREATININE: 0.14 mg/dL
  GLUCOSE: 154.33 mg/dL
  LACTATE DEHYDROGENASE: 87 u/L
  LIPASE: 9.33 u/L
  PHOSPHORUS: 10.8 mg/dL
  POTASSIUM: 5.65 MEQ/L
  SODIUM: 143.37 MEQ/L
  TOTAL BILIRUBIN: 0.13 mg/dL
  TOTAL PROTEIN: 5.9 G/DL
  URIC ACID: 0.73 mg/dL
[2]
  ABSOLUTE BASOPHIL: 0 CELLS/uL
  ABSOLUTE EOSINOPHIL: 0 CELLS/uL
  ABSOLUTE LYMPHOCYTE: 6590.67 CELLS/uL
  ABSOLUTE MONOCYTE: 75.33 CELLS/uL
  ABSOLUTE SEGMENTED NEUTROPHIL: 634 CELLS/uL
  BASOPHIL: 0%
  EOSINOPHIL: 0%
  ERYTHROCYTE COUNT: 5.5 x10E6/uL
  HEMATOCRIT: 33.8%
  HEMOGLOBIN: 13.33 G/DL
  LEUKOCYTE COUNT: 7.3 x10E3/uL
  LYMPHOCYTE: 90.67%
  MEAN CORPUSCULAR HEMOGLOBIN: 24.3 pg
  MEAN CORPUSCULAR HEMOGLOBIN CONCENTRATION: 39.47 G/DL
  MEAN CORPUSCULAR VOLUME: 61.57 fL
  MONOCYTE: 1%
  NEUTROPHIL: 8.33%
  NUCLEATED RED BLOOD CELLS: 0 /100WBC
  PLATELET COUNT: 1129.67 x10E3/uL
  ALANINE AMINOTRANSFERASE: 63 u/L
  ALBUMIN: 3.77 G/DL
  ALKALINE PHOSPHATASE: 417.67 u/L
  ASPARTATE AMINOTRANSFERASE: 107.67 u/L
  BLOOD UREA NITROGEN: 14.33 mg/dL
  CARBON DIOXIDE: 28 mmol/L
  CHLORIDE: 102.67 MEQ/L
  CHOLESTEROL: 54.33 mg/dL
  CREATINE PHOSPHOKINASE: 371.67 u/L
  CREATININE: 0.32 mg/dL
  GLUCOSE: 160.67 mg/dL
  LACTATE DEHYDROGENASE: 97.67 u/L
  LIPASE: 11 u/L
  PHOSPHORUS: 9.53 mg/dL
  POTASSIUM: 4.8 MEQ/L
  SODIUM: 144.33 MEQ/L
  TOTAL BILIRUBIN: 0.17 mg/dL
  TOTAL PROTEIN: 5.53 G/DL
  URIC ACID: 0.37 mg/dL
[3]
  ABSOLUTE BASOPHIL: 0 CELLS/uL
  ABSOLUTE EOSINOPHIL: 48.67 CELLS/uL
  ABSOLUTE LYMPHOCYTE: 8343 CELLS/uL
  ABSOLUTE MONOCYTE: 151.67 CELLS/uL
  ABSOLUTE SEGMENTED NEUTROPHIL: 790 CELLS/uL
  BASOPHIL: 0%
  EOSINOPHIL: 0.67%
  ERYTHROCYTE COUNT: 5.36 x10E6/uL
  HEMATOCRIT: 32.73%
  HEMOGLOBIN: 12.93 G/DL
  LEUKOCYTE COUNT: 9.33 x10E3/uL
  LYMPHOCYTE: 89%
  MEAN CORPUSCULAR HEMOGLOBIN: 24.17 pg
  MEAN CORPUSCULAR HEMOGLOBIN CONCENTRATION: 39.53 G/DL
  MEAN CORPUSCULAR VOLUME: 61.13 fL
  MONOCYTE: 1.67%
  NEUTROPHIL: 8.67%
  NUCLEATED RED BLOOD CELLS: 0 /100WBC
  PLATELET COUNT: 1290.33 x10E3/uL
  ALANINE AMINOTRANSFERASE: 84.33 u/L
  ALBUMIN: 3.8 G/DL
  ALKALINE PHOSPHATASE: 386 u/L
  ASPARTATE AMINOTRANSFERASE: 91 u/L
  BLOOD UREA NITROGEN: 15.33 mg/dL
  CARBON DIOXIDE: 30.33 mmol/L
  CHLORIDE: 97.67 MEQ/L
  CHOLESTEROL: 86 mg/dL
  CREATINE PHOSPHOKINASE: 250 u/L
  CREATININE: 0.3 mg/dL
  GLUCOSE: 148.33 mg/dL
  LACTATE DEHYDROGENASE: 74.67 u/L
  LIPASE: 25.67 u/L
  PHOSPHORUS: 8.03 mg/dL
  POTASSIUM: 5.82 MEQ/L
  SODIUM: 142.7 MEQ/L
  TOTAL BILIRUBIN: 0.1 mg/dL
  TOTAL PROTEIN: 6 G/DL
  URIC ACID: 0.3 mg/dL
